The values below come from patent publication US8318815B2, “Method for treatment of tumors using nordihydroguaiaretic acid derivatives” (priority 1999, dated 2012).

“And” between values parts separate entries of the source, which are not always exact repeats. Equal values may be shown once. Marks after values point to notes of the source that are not given here. Bounds are passed on as bounds.

Data set [1] has as its system CDC2 mRNA. Description: Northern blot of CDC2 mRNA in C3 cells. To be noted: 40 μM.
The subject of data set [2] is C3 tumor. Description: C3 tumor growth in mice, local (intratumoral) injection. In kind it is in vivo. Here is the method:
Thirty six C57b1-16 NCR mice were injected with 5×10^5 C3 cells between the shoulders on the backs of the mice. Twenty four of the mice developed tumors within 20 days. […]
36 C57b1-16NCR mice were injected with 5×10^5 C3 cells/mouse. Injections were 100 μL made subcutaneously between the shoulders on the backs of the mice. Cells were suspended in low-salt HBSS and suspension uniformity was maintained by gentle vortexing.
24 mice developed tumors. Their lesion sizes were measured by dial caliper. These mice were shaved, weight and treatment begun (Day 1). Four were sequestered as controls. Control mice received 50 μl DMSO injected intratumorally daily. […]. Injections were made to several regions of tumor. Mice anesthetized with ether or metaphane prior to injection.
The treatment regimen and results were as follows: • Day 10: Mice weighed again. […]. The skin at the lesion site of #17 cracked with the “dried-out tumor” showing. It was dissected, and lesion excised and weighed. […]. Remaining control mice (#1, 3, 4) were examined non-invasively and were carrying tumors. • Day 21: Tumor sizes from control mice were measured by dial caliper. […]. […]

A short description of data set [3]: Initial animal toxicity studies of M4N in mice. It counts as in vivo.
The test system of data set [4] is CEM-T4 cells. Description: Cell cycle DNA content by propidium iodide flow cytometry, CEM-T4. To be noted: CEMT4, 72 hours. Background: Flow cytometry measures light scatter and fluorescence of single cells or particles in a stream.
Text: The cells were trypsinized, fixed with ethanol, stained with propidium iodide, and were subsequently analyzed by flow cytommetry. […] The indicated stages of the cell cycle are labeled and correspond to the relative cellular DNA compliment as determined by staining intensity.
Setting [5] is: mice carrying multiple tumors, per mouse.
Where [6] appears, read: mice with single tumors, per mouse.

Turning to `COc1ccc(C[C@@H](C)[C@@H](C)Cc2ccc(OC)c(OC)c2)cc1OC` [M4N, tetra-O-methylnordihydroguaiaretic acid], the “amount of CDC2 mRNA” value in data set [1] (24 hours) was “reduced”. Moreover, in data set [1] (72 hours), the “amount of CDC2 mRNA” value is “nearly eliminated”. Moreover, the “body weight changes during the entire experimental period” value in data set [2] (Tables 1 and 2) is reported as “insignificant”. Moreover, the “tumor growth in mice” value in data set [2] (daily injection of 50 μl to 100 μl for several days) is “completely stop tumor growth”. In addition, the “average weight of treated lesions” value in data set [2] (mice carrying multiple tumors, drug injected into one of the tumors) is 0.15 g. In data set [2] (setting [5]), the “Body wt. Day 1” value is 17.8 g and 20.2 g and 17.5 g; the “Body wt. Day 24” value was 20.0 g and 17.9 g and 22.1 g. Besides, the “Wt. Of Excised Lesion, Treated” value in data set [2] (mice carrying multiple tumors, drug injected directly to the tumor regions, per mouse) was 0.11 g and 0.25 g and 0.1 g. Further, in data set [2] (mice carrying single tumors, control group 1.48 g), the “average weight of excised lesions” value stood at 0.142 g. Further, in data set [2] (setting [6]), the “Body wt. Day 1” value was 19 g and 18.2 g and 19.5 g and 17 g and 18.9 g and 17.2 g and 17.3 g; the “Body wt. Day 16” value is 19.2 g and 17.6 g (2×) and 20.0 g; the “Body wt. Day 24” value was 20.4 g and 20.2 g; the “Wt. Of Excised Lesion Day 16” value was 0.2 g and 0.4 g and 0.1 g and 0 g. Besides, the “Wt. Of Excised Lesion Day 24” value in data set [2] (setting [6]) was 0.1 g and 0 g. Besides, the “Wt. Of Excised Lesion, taken on Day 15” value in data set [2] (mouse 17, single tumor) is recorded as 0.2** g. In addition, in data set [3] (given either subcutaneously or by IV), the “non-toxic to mice at concentrations as high as” value is ≤ 375 mg/kg. Besides, the “non-toxic to mice at concentrations as high as” value in data set [3] (given intraperitoneally) is reported as ≤ 300 mg/kg. Also, the “cells showing G2/M DNA content” value in data set [4] was > 90%.
